# Structures can show the parent of a compound that is named as a salt.
# How the values were obtained:
# [1] = Solubilities of active ingredients in carvacrol or carvacrol-containing (or thymol) formulations; assay type: physicochemical
# From the text: The mixing ratios are always given as volume proportions. Liqui-Patch® are formulations of ready-to-use mixtures of polymers and other additives for making transdermal systems and are obtainable from the company epinamics GmbH. In the formulation employed here, Liqui-Patch® contains the following components: mixture of 10 g triethyl citrate, 100 g water (demineralized or medical), 100 g DynamX®, 790 g ethanol.
# [2] = Solubilities of clotrimazole and testosterone in different solvents; conditions: for Solubilities in solvents with compounds employed according to the invention, compared with other solvents: Table II; for solubility: organic solvent or mixture
# [3] = Volatility of carvacrol with different admixtures (spots on glass plate at 35° C., recovery); assay type: physicochemical; conditions: for V.C. 30 min. (volatile carvacrol) / V.C. 3 h (volatile carvacrol): carvacrol 20%, remainder ethanol, 35° C.
# Procedure: For testing whether carvacrol is suitable for transdermal systems or whether carvacrol is contained sufficiently long in transdermal systems, the volatility was investigated with different admixtures. The volatility is important, in order to keep the active ingredients sufficiently long in solution in the film.
# For the measurement, two spots of 5 μl of each formulation, containing 1 mg carvacrol, were applied per point of time on a glass plate kept at 35° C. Two spots of a respective point of time (30 min. and 3 h after application of the spot) were wiped off with a cotton applicator. The amount of wiped-off carvacrol was determined. The difference to 100% intended recovery rate is the volatile carvacrol. The abbreviation V. refers to “volatile”, the abbreviation C. refers to carvacrol. The share of carvacrol is always 20%, the remainder relative to the sum of carvacrol and the additive is ethanol. Amounts are given in vol.-%.
# [4] = additive Ethylmethyl ketone 10%
# [5] = additive Ethylmethyl ketone 20%
# [6] = additive Isopropyl myristate 10%
# [7] = additive Isopropyl myristate 20%
# [8] = additive Propylene carbonate 10%
# [9] = additive Propylene carbonate 20%
# [10] = additive Propylene glycol 10%/menthol 5%
# [11] = additive Propylene glycol 20%/menthol 10%
# [12] = solvent: Carvacrol/Liqui-Patch (1:1), volume proportions
smiles,measurement,setting,value
CN(C/C=C/C#CC(C)(C)C)Cc1cccc2ccccc12 [Terbinafine],Dissolved amount,[1]; solvent: Thymol/Ethanol (1:1),406 mg/mL
O=C(CCCN1CCC(O)(c2ccc(Cl)cc2)CC1)c1ccc(F)cc1 [Haloperidol],Dissolved amount,[1]; solvent: Carvacrol,100 mg/mL
COc1cc(/C=C/C(=O)CC(=O)/C=C/c2ccc(O)c(OC)c2)ccc1O [Curcumin],Dissolved amount,[1]; solvent: Carvacrol,20 mg/mL
Clc1ccccc1C(c1ccccc1)(c1ccccc1)n1ccnc1 [Clotrimazole],Dissolved amount,[1]; solvent: Carvacrol,410 mg/mL
same,"Solubilities in solvents with compounds employed according to the invention, compared with other solvents",[2],considerably higher
Cl.Cl.Fc1ccc(C(c2ccc(F)cc2)N2CCN(C/C=C/c3ccccc3)CC2)cc1 [Flunarizine*2HCl],Dissolved amount,[1]; solvent: Carvacrol,60 mg/mL
Cc1ccc(C(C)C)cc1O [carvacrol],V.C. 30 min. (volatile carvacrol),[3]; [4],33%
same,V.C. 3 h (volatile carvacrol),[3]; [4],100%
same,V.C. 30 min. (volatile carvacrol),[3]; [5],45%
same,V.C. 3 h (volatile carvacrol),[3]; [5],100%
same,V.C. 30 min. (volatile carvacrol),[3]; additive Glycerol 10%,28%
same,V.C. 3 h (volatile carvacrol),[3]; additive Glycerol 10%,96%
same,V.C. 30 min. (volatile carvacrol),[3]; additive Glycerol 20%,33%
same,V.C. 3 h (volatile carvacrol),[3]; additive Glycerol 20%,88%
same,V.C. 30 min. (volatile carvacrol),[3]; [6],26%
same,V.C. 3 h (volatile carvacrol),[3]; [6],46%
same,V.C. 30 min. (volatile carvacrol),[3]; [7],24%
same,V.C. 3 h (volatile carvacrol),[3]; [7],32%
same,V.C. 30 min. (volatile carvacrol),[3]; [8],29%
same,V.C. 3 h (volatile carvacrol),[3]; [8],49%
same,V.C. 30 min. (volatile carvacrol),[3]; [9],11%
same,V.C. 3 h (volatile carvacrol),[3]; [9],24%
same,V.C. 30 min. (volatile carvacrol),[3]; [10],40%
same,V.C. 3 h (volatile carvacrol),[3]; [10],97%
same,V.C. 30 min. (volatile carvacrol),[3]; additive Propylene glycol 10%,40%
same,V.C. 3 h (volatile carvacrol),[3]; additive Propylene glycol 10%,51%
same,V.C. 30 min. (volatile carvacrol),[3]; [11],0%
same,V.C. 3 h (volatile carvacrol),[3]; [11],46%
same,V.C. 30 min. (volatile carvacrol),[3]; additive Propylene glycol 20%,1%
same,V.C. 3 h (volatile carvacrol),[3]; additive Propylene glycol 20%,33%
same,V.C. 30 min. (volatile carvacrol),[3]; additive Water 10%,18%
same,V.C. 3 h (volatile carvacrol),[3]; additive Water 10%,94%
same,V.C. 30 min. (volatile carvacrol),[3]; additive Water 20%,0%
same,V.C. 3 h (volatile carvacrol),[3]; additive Water 20%,94%
same,Volatility of carvacrol,"[3]; by propylene carbonate, propylene glycol, or isopropyl myristate as additive",reduced
"O=C(O)c1cc(=O)c2c(OCC(O)COc3cccc4oc(C(=O)O)cc(=O)c34)cccc2o1 [Cromoglicic acid-Na, Cromoglicic acid disodium salt]",Dissolved amount,[1]; solvent: Carvacrol,50 mg/mL
O=c1[nH]cc(F)c(=O)[nH]1 [5-Fluorouracil],Dissolved amount,[1]; solvent: Carvacrol,25 mg/mL
O=c1[nH]c(=O)c2[nH]c(=O)[nH]c2[nH]1 [Uric acid],Dissolved amount,[1]; solvent: Carvacrol,<20 mg/mL
CCCCCCCCCCCC(=O)O [Lauric acid],Dissolved amount,[1]; solvent: Carvacrol,500 mg/mL
same,Dissolved amount,[1]; [12],250 mg/mL
C[C@]12CC[C@H]3[C@@H](CCC4=CC(=O)CC[C@@]43C)[C@@H]1CC[C@@H]2O [Testosterone],Dissolved amount,[1]; solvent: Carvacrol,220 mg/mL
same,"Solubilities in solvents with compounds employed according to the invention, compared with other solvents",[2],considerably higher
same,solubility,[2]; solvent: 4-Methyl-Anisole,< 250 mg/mL
same,solubility,[2]; solvent: 20% 4MS/80% EtOH,335 mg/mL
same,solubility,[2]; solvent: 20% (S)-(—)-Limonene/80% Ethanol,200 mg/mL
same,solubility,[2]; solvent: 20% Anisole/80% EtOH,500 mg/mL
same,solubility,[2]; solvent: 20% Carvacrol/80% Acetone,170 mg/mL
same,solubility,[2]; solvent: 20% Carvacrol/80% EtOH,260 mg/mL
same,solubility,[2]; solvent: 20% Carvacrol/80% LP (Liqui-Patch),250 mg/mL
same,solubility,[2]; solvent: 20% Gamma-Terpinene/80% ethalol,200 mg/mL
same,solubility,[2]; solvent: 20% Guaiacol/80% EtOH,300 mg/mL
same,solubility,[2]; solvent: 20% Guaiacol/80% LP (Liqui-Patch),270 mg/mL
same,solubility,[2]; solvent: 20% Thymol/80% Acetone,180 mg/mL
same,solubility,[2]; solvent: 20% Thymol/80% EtOH,330 mg/mL
same,solubility,[2]; solvent: 20% Thymol/80% LP (Liqui-Patch),300 mg/mL
same,solubility,[2]; solvent: 20% p-Cymene/80% Ethanol,300 mg/mL
same,solubility,[2]; solvent: (S)-(—)-Limonene,< 100 mg/mL
same,solubility,[2]; solvent: Acetone,60 mg/mL
same,solubility,[2]; solvent: Anisole,< 100 mg/mL
same,solubility,[2]; solvent: Ethanol,90 mg/mL
same,solubility,[2]; solvent: Gamma-Terpinene,< 100 mg/mL
same,solubility,[2]; solvent: Guaiacol,270 mg/mL
same,solubility,[2]; solvent: LP (Liqui-Patch),190 mg/mL
same,solubility,[2]; solvent: Methyl salicylate (4MS),< 100 mg/mL
same,solubility,[2]; solvent: carvacrol,230 mg/mL
same,solubility,[2]; solvent: p-Cymene,< 100 mg/mL
C=C(c1ccc(C(=O)O)cc1)c1cc2c(cc1C)C(C)(C)CCC2(C)C [Bexarotene],Dissolved amount,[1]; solvent: Carvacrol,60 mg/mL
same,Dissolved amount,[1]; [12],30 mg/mL
Oc1cccc2cccnc12 [8-Hydroxyquinoline],Dissolved amount,[1]; solvent: Carvacrol,>100 mg/mL
O=c1oc2c(O)c(O)cc3c(=O)oc4c(O)c(O)cc1c4c23 [Ellagic acid],Dissolved amount,[1]; solvent: Carvacrol,60 mg/mL
CCn1cc(C(=O)O)c(=O)c2ccc(C)nc21 [Nalidixic Acid],Dissolved amount,[1]; solvent: Carvacrol,108 mg/mL
CC(=O)N1CCN(c2ccc(OCC3COC(Cn4ccnc4)(c4ccc(Cl)cc4Cl)O3)cc2)CC1 (stereo not drawn) [Ketoconazole],Dissolved amount,[1]; solvent: Carvacrol,140 mg/mL
Nc1cc(=O)[nH]c(=O)[nH]1 [6-Aminouracil],Dissolved amount,[1]; solvent: Carvacrol,<50 mg/mL
CC[C@H]1OC(=O)[C@H](C)[C@@H](O[C@H]2C[C@@](C)(OC)[C@@H](O)[C@H](C)O2)[C@H](C)[C@@H](O[C@@H]2O[C@H](C)C[C@H](N(C)C)[C@H]2O)[C@](C)(O)C[C@@H](C)C(=O)[C@H](C)[C@@H](O)[C@]1(C)O [Erythromycin],Dissolved amount,[1]; solvent: Carvacrol,110 mg/mL
CN1C2CCCC1CC(NC(=O)c1nn(C)c3ccccc13)C2 (stereo not drawn) [Granisetron],Dissolved amount,[1]; solvent: Carvacrol 62.5% Methanol 31.25% 2M NaOH/H2O 6.25%,71.25 mg/mL
O=c1ccc2ccccc2o1 [Coumarin],Dissolved amount,[1]; solvent: Carvacrol,>200 mg/mL
CC1=CC(=O)C(C(C)C)=CC1=O [Thymoquinone],Dissolved amount,[1]; solvent: Carvacrol,>100 mg/mL
O=C(O)c1ccccc1O [Salicylic acid],Dissolved amount,"[1]; solvent: Carvacrol/Methanol (1:1), volume proportions",240 mg/mL

# — patent US20160317661A1, “DERMAL AND/OR TRANSDERMAL PHARMACEUTICAL COMPOSITION CONTAINING A TERPENOID COMPOUND” (EPINAMICS GMBH, priority 2013, published 2016)
